# Patent publication US10689377B2 (Mirati Therapeutics, Inc., priority 2017, dated 2020)
# Target: KRas G12C (Homo sapiens, UniProt P01116, G12C)
# Assay: Cellular inhibition of KRas G12C measured by Phospho-ERK in NCI-H358 cells
# Format: cell-based
# Conditions: pERK(Thr202/Tyr204) normalized with GAPDH, NCI-H358 cells, 3 hours; read-out: IC50
# Outline: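 NCI-H358 cells treated 3 h with compound (0.5% DMSO final), then fixed and methanol-permeabilised. In-cell immunofluorescence measured pERK(Thr202/Tyr204) normalised to GAPDH as percent of DMSO control. IC50 from a 4-parameter dose-response fit.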
# KRas G12C, sequence (P01116 1-188 isoform P01116-2 G12C): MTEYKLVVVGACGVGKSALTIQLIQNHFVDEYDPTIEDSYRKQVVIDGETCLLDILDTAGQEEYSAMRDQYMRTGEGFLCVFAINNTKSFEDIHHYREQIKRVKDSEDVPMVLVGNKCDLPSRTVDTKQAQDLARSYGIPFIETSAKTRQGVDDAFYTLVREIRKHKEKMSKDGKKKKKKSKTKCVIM
row,IC50,SMILES
1,0.0001 to 1 µM,"C=CC(=O)N1CCN(c2nc(OC[C@@H]3CCCN3CC(=O)N(C)C)nc3c2CCN(c2cccc4ccccc24)C3)C[C@@H]1CC#N [Example 402, 2-((S)-2-(((4-((S)-4-acryloyl-3-(cyanomethyl)piperazin-1-yl)-7-(naphthalen-1-yl)-5,6,7,8-tetrahydropyrido[3,4-d]pyrimidin-2-yl)oxy)methyl)pyrrolidin-1-yl)-N,N-dimethylacetamide]"
2,0.0001 to 1 µM,"C=CC(=O)N1CCN(c2nc(OC[C@@H]3CCCN3C)nc3c2CCN(c2cccc(F)c2Cl)C3)C[C@@H]1CC#N [Example 406, 2-((S)-1-acryloyl-4-(7-(2-chloro-3-fluorophenyl)-2-(((S)-1-methylpyrrolidin-2-yl)methoxy)-5,6,7,8-tetrahydropyrido[3,4-d]pyrimidin-4-yl)piperazin-2-yl)acetonitrile]"
3,0.0001 to 1 µM,"C=CC(=O)N1CCN(c2nc(OC[C@@H]3CCN(C)C3)nc3c2CCN(c2cccc4ccccc24)C3)C[C@@H]1CC#N [Example 410, 2-((S)-1-acryloyl-4-(2-(((R)-1-methylpyrrolidin-3-yl)methoxy)-7-(naphthalen-1-yl)-5,6,7,8-tetrahydropyrido[3,4-d]pyrimidin-4-yl)piperazin-2-yl)acetonitrile]"
4,0.0001 to 1 µM,"C=CC(=O)N1CCN(c2nc(OC[C@@H]3CCCN3C)nc3c2CCN(c2cccc(Cl)c2C(F)(F)F)C3)CC1CC#N (stereo partly drawn) [Example 414, 2-(1-acryloyl-4-(7-(3-chloro-2-(trifluoromethyl)phenyl)-2-(((S)-1-methylpyrrolidin-2-yl)methoxy)-5,6,7,8-tetrahydropyrido[3,4-d]pyrimidin-4-yl)piperazin-2-yl)acetonitrile]"
5,0.0001 to 1 µM,"C=CC(=O)N1CCN(c2nc(OC[C@H]3C[C@H](O)CN3C)nc3c2CCN(c2cccc(F)c2C(F)(F)F)C3)CC1CC#N (stereo partly drawn) [Example 415, 2-(1-acryloyl-4-(7-(3-fluoro-2-(trifluoromethyl)phenyl)-2-(((2R,4S)-4-hydroxy-1-methylpyrrolidin-2-yl)methoxy)-5,6,7,8-tetrahydropyrido[3,4-d]pyrimidin-4-yl)piperazin-2-yl)acetonitrile]"
6,0.0001 to 1 µM,"C=CC(=O)N1CCN(c2nc(OC[C@H]3C[C@@H](O)CN3C)nc3c2CCN(c2cccc(F)c2C(F)(F)F)C3)CC1CC#N (stereo partly drawn) [Example 416, 2-(1-acryloyl-4-(7-(3-fluoro-2-(trifluoromethyl)phenyl)-2-(((2R,4R)-4-hydroxy-1-methylpyrrolidin-2-yl)methoxy)-5,6,7,8-tetrahydropyrido[3,4-d]pyrimidin-4-yl)piperazin-2-yl)acetonitrile]"

# Second part, the molecule before the results:
row,SMILES,IC50
1,"C=CC(=O)N1CCN(c2nc(OC[C@@H]3CCCN3CC)nc3c2CCN(c2cccc4ccccc24)C3)C[C@@H]1CC#N [Example 400, 2-((S)-1-acryloyl-4-(2-(((S)-1-ethylpyrrolidin-2-yl)methoxy)-7-(naphthalen-1-yl)-5,6,7,8-tetrahydropyrido[3,4-d]pyrimidin-4-yl)piperazin-2-yl)acetonitrile]",0.0001 to 1 µM
2,"CCN1CCC[C@H]1COc1nc2c(c(N3CCN(C(=O)/C=C/CN(C)C)[C@@H](CC#N)C3)n1)CCN(c1cccc3ccccc13)C2 [Example 401, 2-((S)-1-((E)-4-(dimethylamino)but-2-enoyl)-4-(2-(((S)-1-ethylpyrrolidin-2-yl)methoxy)-7-(naphthalen-1-yl)-5,6,7,8-tetrahydropyrido[3,4-d]pyrimidin-4-yl)piperazin-2-yl)acetonitrile]",0.0001 to 1 µM
3,C=CC(=O)N1CCN(c2nc(N3CC[C@H](N(C)C)C3)nc3c2CCN(c2cccc4ccccc24)C3)C[C@@H]1CC#N [Example 403],0.0001 to 1 µM
4,"Cc1cccc(N2CCc3c(nc(OC[C@@H]4CCCN4C)nc3N3CCN(C(=O)/C=C/CN(C)C)[C@@H](CC#N)C3)C2)c1C [Example 404, 2-((S)-1-((E)-4-(dimethylamino)but-2-enoyl)-4-(7-(2,3-dimethylphenyl)-2-(((S)-1-methylpyrrolidin-2-yl)methoxy)-5,6,7,8-tetrahydropyrido[3,4-d]pyrimidin-4-yl)piperazin-2-yl)acetonitrile]",0.0001 to 1 µM
5,"C=CC(=O)N1CCN(c2nc(N3CCCC(N(C)C)C3)nc3c2CCN(c2cccc4ccccc24)C3)C[C@@H]1CC#N (stereo partly drawn) [Example 405, 2-((2S)-1-acryloyl-4-(2-(3-(dimethylamino)piperidin-1-yl)-7-(naphthalen-1-yl)-5,6,7,8-tetrahydropyrido[3,4-d]pyrimidin-4-yl)piperazin-2-yl)acetonitrile]",0.0001 to 1 µM
6,"C=CC(=O)N1CCN(c2nc(OC[C@@H]3CCCN3C)nc3c2CCN(c2cccc(F)c2F)C3)C[C@@H]1CC#N [Example 407, 2-((S)-1-acryloyl-4-(7-(2,3-difluorophenyl)-2-(((S)-1-methylpyrrolidin-2-yl)methoxy)-5,6,7,8-tetrahydropyrido[3,4-d]pyrimidin-4-yl)piperazin-2-yl)acetonitrile]",> 1 µM
7,"C=CC(=O)N1CCN(c2nc(NC[C@@H]3CCCN3C)nc3c2CCN(c2cccc4ccccc24)C3)C[C@@H]1CC#N [Example 408, 2-((S)-1-acryloyl-4-(2-((((S)-1-methylpyrrolidin-2-yl)methyl)amino)-7-(naphthalen-1-yl)-5,6,7,8-tetrahydropyrido[3,4-d]pyrimidin-4-yl)piperazin-2-yl)acetonitrile]",> 1 µM
8,"C=CC(=O)N1CCN(c2nc(OCCN3CCCCC3)nc3c2CCN(c2cccc4ccccc24)C3)C[C@@H]1CC#N [Example 409, (S)-2-(1-acryloyl-4-(7-(naphthalen-1-yl)-2-(2-(piperidin-1-yl)ethoxy)-5,6,7,8-tetrahydropyrido[3,4-d]pyrimidin-4-yl)piperazin-2-yl)acetonitrile]",0.0001 to 1 µM
9,"C=CC(=O)N1CCN(c2nc(OC[C@@H]3CCCN3C)nc3c2CCN(c2cccc(F)c2C)C3)CC1CC#N (stereo partly drawn) [Example 411, 2-(1-acryloyl-4-(7-(3-fluoro-2-methylphenyl)-2-(((S)-1-methylpyrrolidin-2-yl)methoxy)-5,6,7,8-tetrahydropyrido[3,4-d]pyrimidin-4-yl)piperazin-2-yl)acetonitrile]",0.0001 to 1 µM
10,C=CC(=O)N1CCN(c2nc(OC[C@@H]3CCCN3C)nc3c2CCN(c2c(F)cccc2C(F)(F)F)C3)CC1CC#N (stereo partly shown) [Example 412],0.0001 to 1 µM
11,"C=CC(=O)N1CCN(c2nc(OC[C@@H]3CCCN3C)nc3c2CCN(c2ccc(F)cc2C(F)(F)F)C3)CC1CC#N (stereo partly drawn) [Example 413, 2-(1-acryloyl-4-(7-(4-fluoro-2-(trifluoromethyl)phenyl)-2-(((S)-1-methylpyrrolidin-2-yl)methoxy)-5,6,7,8-tetrahydropyrido[3,4-d]pyrimidin-4-yl)piperazin-2-yl)acetonitrile]",0.0001 to 1 µM
12,"C=CC(=O)N1CCN(c2nc(OC[C@H]3C[C@H](F)CN3C)nc3c2CCN(c2cccc(F)c2C(F)(F)F)C3)CC1CC#N (stereo partly drawn) [Example 417, 2-(1-acryloyl-4-(2-(((2R,4S)-4-fluoro-1-methylpyrrolidin-2-yl)methoxy)-7-(3-fluoro-2-(trifluoromethyl)phenyl)-5,6,7,8-tetrahydropyrido[3,4-d]pyrimidin-4-yl)piperazin-2-yl)acetonitrile]",0.0001 to 1 µM
13,"C=CC(=O)N1CCN(c2nc(OC[C@@]3(C)CCCN3C)nc3c2CCN(c2cccc(F)c2C(F)(F)F)C3)CC1CC#N (stereo partly drawn) [Example 418, 2-(1-acryloyl-4-(2-(((R)-1,2-dimethylpyrrolidin-2-yl)methoxy)-7-(3-fluoro-2-(trifluoromethyl)phenyl)-5,6,7,8-tetrahydropyrido[3,4-d]pyrimidin-4-yl)piperazin-2-yl)acetonitrile]",0.0001 to 1 µM
